Test results taken from PMC8317962, “Development of tacrine clusters as positively cooperative systems for the inhibition of acetylcholinesterase” (Journal of Enzyme Inhibition and Medicinal Chemistry, 2021).
Where two headings read alike, the source gives them in different places.

Columns and labels:
[1] = target: T1, acetylcholinesterase from Electrophorus electricus (Electrophorus electricus, UniProt O42275); experiment: Kinetic study of AChE inhibition mode (Cornish-Bowden plots, inhibition constants); type: biochemical; details: for Ki: mean ± SD
T1 construct: purchased Sigma Aldrich type V-S
Method: (§1) For the assessment of enzymatic inhibition, commercially available acetylcholinesterase from Electrophorus electricus (type V-S, Sigma Aldrich) was used, conducting minor modifications on Ellman’s protocol. […] Enzymatic activities were measured in a UV–Vis instrument (Hitachi U-2900) using PS cuvettes containing […] phosphate buffer (pH 8.0), 5,5′-dithiobis(2-nitrobenzoic acid) (DTNB, 0.88 mM, buffer solution), acetylthiocholine iodide as a model substrate, inhibitor, properly diluted aqueous enzyme solution, and water up to 1.2 ml. Solutions of the enzymes were prepared so as to keep the reaction rate within 0.12–0.15 Abs/min when [S] = 4 × KM. The formation of the chromophore was monitored during 125 s at 405 nm and 25 °C.
For the calculation of the kinetic parameters of the free enzyme, and in the presence of 3a, five different substrate concentrations, ranging from ¼ KM to 4 × KM were used. Cornish-Bowden method[26] provided the mode of inhibition of 3a; for that purpose, two different plots were used: 1/v vs. [I] (Dixon plot) and [S]/v vs. [I]. […] Kinetic parameters (KM, Vmax, KM app, Vmax app) were obtained through non-linear regression analysis (least squares fit) using the GraphPad Prism 8.01 software and inhibition constants were calculated using the following equations: (1) KM,app=KM1+[I]/Kia/1+[I]/Kib (2) Vmaxapp=Vmax/1+[I]/Kib
(§2) Data are expressed as the mean ± SD.

[2] = target: T1, acetylcholinesterase from Electrophorus electricus; experiment: biochemical; type: biochemical; details: for IC50: read-out: AChE IC50; for AChE rp (relative inhibition potency): rp = IC50 (mono-tacrine)/IC50 (tetra-tacrine); for AChE rp/n (inhibition potency on valency-corrected basis): rp/n = rp/number of tacrine rings; for less active when connected to the central multivalent sugar scaffold: from rp/n of the corresponding tetra-tacrine
Method: as §1, with “KM.” for “KM. The formation of the chromophore was monitored during 125 s at 405 nm and 25 °C.”
Calculation of IC50 values was accomplished by plotting %I vs. log[I] and adjusting to a second-order equation.
as §2

[3] = system: AChE; details: cited from earlier work
[4] = [S] = 121 μM, Electrophorus electricus AChE, mean ± SD

T1 sequence (O42275 24-633): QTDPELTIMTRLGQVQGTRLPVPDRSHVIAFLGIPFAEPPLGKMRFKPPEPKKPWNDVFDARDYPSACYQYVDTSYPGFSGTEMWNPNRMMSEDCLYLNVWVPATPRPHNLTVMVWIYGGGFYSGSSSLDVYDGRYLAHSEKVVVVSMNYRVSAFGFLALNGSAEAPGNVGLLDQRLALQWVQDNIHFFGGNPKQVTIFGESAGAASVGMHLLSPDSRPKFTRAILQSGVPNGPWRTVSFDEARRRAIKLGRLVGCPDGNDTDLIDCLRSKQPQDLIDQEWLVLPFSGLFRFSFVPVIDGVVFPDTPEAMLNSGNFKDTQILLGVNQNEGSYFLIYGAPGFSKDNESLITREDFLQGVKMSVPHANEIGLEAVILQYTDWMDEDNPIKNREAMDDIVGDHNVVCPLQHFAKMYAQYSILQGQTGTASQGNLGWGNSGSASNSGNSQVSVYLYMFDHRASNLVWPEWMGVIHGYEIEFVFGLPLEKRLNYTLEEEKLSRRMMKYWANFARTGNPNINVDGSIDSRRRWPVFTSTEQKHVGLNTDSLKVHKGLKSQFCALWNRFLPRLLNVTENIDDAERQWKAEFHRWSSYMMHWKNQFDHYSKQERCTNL

CO[C@H]1O[C@H](COCc2cn(CCNc3c4c(nc5ccccc35)CCCC4)nn2)[C@@H](OCc2cn(CCNc3c4c(nc5ccccc35)CCCC4)nn2)[C@H](OCc2cn(CCNc3c4c(nc5ccccc35)CCCC4)nn2)[C@H]1OCc1cn(CCNc2c3c(nc4ccccc24)CCCC3)nn1 [Compound 3a]
mode of inhibition of AChE ([1]; Cornish-Bowden method): Mixed inhibition | Ki ([1]; binding to enzyme-substrate complex, read-out: Kib (non-competitive inhibition constant)): 0.045 ± 0.0059 µM | Ki ([1]; binding to free enzyme, read-out: Kia (competitive inhibition constant)): 0.0316 ± 0.002 µM | IC50 [2]: 0.0437 ± 0.0073 µM | AChE rp (relative inhibition potency) [2]: 12.9 | AChE rp/n (inhibition potency on valency-corrected basis) [2]: 3.2

OCc1cn(CCNc2c3c(nc4ccccc24)CCCC3)nn1 [Compound 3b, (1-(2-((1,2,3,4-tetrahydroacridin-9-yl)amino)ethyl)-1H-1,2,3-triazol-4-yl)metanol]
IC50 [2]: 0.565 ± 0.079 µM

CO[C@H]1O[C@H](COCc2cn(CCCNc3c4c(nc5ccccc35)CCCC4)nn2)[C@@H](OCc2cn(CCCNc3c4c(nc5ccccc35)CCCC4)nn2)[C@H](OCc2cn(CCCNc3c4c(nc5ccccc35)CCCC4)nn2)[C@H]1OCc1cn(CCCNc2c3c(nc4ccccc24)CCCC3)nn1 [Compound 4a]
IC50 [2, 4]: 0.0602 ± 0.0055 µM | AChE rp (relative inhibition potency) [2]: 5.8 | AChE rp/n (inhibition potency on valency-corrected basis) [2]: 1.5

OCc1cn(CCCNc2c3c(nc4ccccc24)CCCC3)nn1 [Compound 4b, (1-(3-((1,2,3,4-tetrahydroacridin-9-yl)amino)propyl)-1H-1,2,3-triazol-4-yl)metanol]
IC50 [2]: 0.348 ± 0.023 µM

CO[C@H]1O[C@H](COCc2cn(CCCCCCNc3c4c(nc5ccccc35)CCCC4)nn2)[C@@H](OCc2cn(CCCCCCNc3c4c(nc5ccccc35)CCCC4)nn2)[C@H](OCc2cn(CCCCCCNc3c4c(nc5ccccc35)CCCC4)nn2)[C@H]1OCc1cn(CCCCCCNc2c3c(nc4ccccc24)CCCC3)nn1 [Compound 5a]
IC50 [2]: 0.0125 ± 0.0033 µM | AChE rp (relative inhibition potency) [2]: 1.0

OCc1cn(CCCCCCNc2c3c(nc4ccccc24)CCCC3)nn1 [Compound 5b, (1-(6-((1,2,3,4-tetrahydroacridin-9-yl)amino)hexyl)-1H-1,2,3-triazol-4-yl)metanol]
less active when connected to the central multivalent sugar scaffold [2]: 75% | IC50 [2]: 0.0126 ± 0.0024 µM

CO[C@H]1O[C@H](COCc2cn(CCCCCCCCNc3c4c(nc5ccccc35)CCCC4)nn2)[C@@H](OCc2cn(CCCCCCCCNc3c4c(nc5ccccc35)CCCC4)nn2)[C@H](OCc2cn(CCCCCCCCNc3c4c(nc5ccccc35)CCCC4)nn2)[C@H]1OCc1cn(CCCCCCCCNc2c3c(nc4ccccc24)CCCC3)nn1 [Compound 6a]
IC50 [2, 4]: 0.232 ± 0.021 µM | AChE rp (relative inhibition potency) [2]: 0.03

OCc1cn(CCCCCCCCNc2c3c(nc4ccccc24)CCCC3)nn1 [Compound 6b, (1-(8-((1,2,3,4-Tetrahydroacridin-9-yl)amino)octyl)-1H-1,2,3-triazol-4-yl)metanol]
less active when connected to the central multivalent sugar scaffold [2]: more than 99% | IC50 [2]: 0.0071 ± 0.001 µM

CO[C@H]1O[C@H](CO)[C@@H](O)[C@H](O)[C@H]1O [Methyl α-D-glucopyranoside, methyl α-D-glucopyranoside, reference compound]
AChE inhibition (N.I.) ([2]; Tested at 100 μM inhibitor concentration, [S] = 121 μM): N.I.^d

c1ccc2c(NCCCCCCCNc3c4c(nc5ccccc35)CCCC4)c3c(nc2c1)CCCC3 [bis(7)tacrine]
fold stronger AChE inhibitor than tacrine [3]: ~1000 fold
